From paper PMC10341549, “Inhibitory Investigations of Acyl-CoA Derivatives against Human Lipoxygenase Isozymes” (International Journal of Molecular Sciences, 2023)

Biological target: T1, h5-LOX (Homo sapiens, UniProt P09917, C241A/C562A/D45S/DEL41-43/F15H/K654E/K655N/K656L/L77S/N44G/W14E/W76G)
T1 sequence (P09917 with tags, fused parts or gaps W14E/F15H/DEL41-43/N44G/D45S/W76G/L77S/C241A/C562A/K654E/K655N/K656L): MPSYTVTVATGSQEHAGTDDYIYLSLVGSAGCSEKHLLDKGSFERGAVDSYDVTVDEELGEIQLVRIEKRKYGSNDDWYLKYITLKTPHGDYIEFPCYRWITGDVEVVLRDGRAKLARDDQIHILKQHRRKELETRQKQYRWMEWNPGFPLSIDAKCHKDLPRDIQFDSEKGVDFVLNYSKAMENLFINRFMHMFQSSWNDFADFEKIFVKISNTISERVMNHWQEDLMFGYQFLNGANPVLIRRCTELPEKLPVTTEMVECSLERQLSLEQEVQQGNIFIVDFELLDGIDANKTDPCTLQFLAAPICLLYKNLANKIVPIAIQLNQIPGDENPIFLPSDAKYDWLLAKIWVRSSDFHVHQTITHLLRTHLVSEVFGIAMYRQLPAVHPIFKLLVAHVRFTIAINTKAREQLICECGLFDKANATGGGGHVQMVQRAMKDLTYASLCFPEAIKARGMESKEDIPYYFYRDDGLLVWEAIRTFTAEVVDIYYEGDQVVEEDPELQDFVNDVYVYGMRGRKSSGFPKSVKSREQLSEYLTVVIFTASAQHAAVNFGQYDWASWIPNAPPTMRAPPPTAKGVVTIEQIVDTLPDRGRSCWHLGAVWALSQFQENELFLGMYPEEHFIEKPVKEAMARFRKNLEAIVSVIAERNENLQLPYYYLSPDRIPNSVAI
Assay: IC50 determination against h5-LOX
Format: biochemical
Conditions: 10 μM AA, 50 mM HEPES pH 7.5, 200 µM ATP, ammonium-sulfate precipitate enzyme, 22 °C
Method: Overexpression and purification of his-tagged wild-type h12-LOX (Uniprot entry P18054), h15-LOX-1 (Uniprot entry P16050), and h15-LOX-2 (Uniprot entry O15296) were performed using nickel-affinity chromatography. The purity of h12-LOX, h15-LOX-1, and h15-LOX-2 was assessed using SDS gel as greater than 85%, and metal content was assessed with a Finnigan inductively coupled plasma mass spectrometer (ICP-MS, Thermo Fischer Scientific, San Jose, USA) via comparison with iron standard solution. Cobalt-EDTA was used as an internal standard. WT h5-LOX (UniProt entry P09917) was expressed in Rosetta 2 cells (Novagen) transformed with the pET14b-Stable-5-LOX plasmid (a gift from Marcia Newcomer of Louisiana State University) and grown in Terrific Broth containing 34 μg/mL chloramphenicol and 100 μg/mL ampicillin at 37 °C for 3.5 h, then placed at 20 °C for an additional 26 h. Cells were pelleted and resuspended in 50 mM Tris (pH 8.0), 500 mM NaCl, 20 mM imidazole with 1 μM pepstatin, 100 μM PMSF, and DNaseI (Sigma, Kanagawa, Japan). The cells were lysed in a French pressure cell and centrifuged at 40,000× g for 20 min at 4 °C. Saturated ammonium sulfate was added to achieve a final solution of 10% and inverted several times. The lysate was centrifuged at 40,000× g for 10 min at 4 °C. The pellet was discarded, and the supernatant was increased to a final concentration of 50% ammonium sulfate. The supernatant was rotated for 10 min at 4 °C then centrifuged at 40,000× g for 10 min at 4 °C. The pellet was split into 150 mg aliquots. The WT h5-LOX used for the kinetics in this work was not purified due to a dramatic loss in activity and was therefore prepared as an ammonium-sulfate precipitate.
IC50 values for each acyl-CoA were measured against h5-LOX, h12-LOX, h15-LOX-1, and h15-LOX-2. […] The fastest rates over 15 s intervals were recorded. […]

Structure (SMILES) | IC50 [µM]
CC/C=C\C/C=C\C/C=C\C/C=C\C/C=C\C/C=C\CCC(=O)SCCNC(=O)CCNC(=O)C(O)C(C)(C)COP(=O)(O)OP(=O)(O)OC[C@H]1O[C@@H](n2cnc3c(N)ncnc32)[C@H](O)[C@@H]1OP(=O)(O)O (stereo partly drawn) [Docosahexaenoyl CoA (22:6), docosahexaenoyl-coenzyme A (22:6)] | > 200
CCCCC/C=C\C/C=C\CCCCCCCC(=O)SCCNC(=O)CCNC(=O)[C@H](O)C(C)(C)COP(=O)(O)OP(=O)(O)OC[C@H]1O[C@@H](n2cnc3c(N)ncnc32)[C@H](O)[C@@H]1OP(=O)(O)O [Linoleoyl-CoA (18:2), linoleoyl-CoA] | > 50
CCCCC/C=C\C/C=C\C/C=C\CCCCC(=O)SCCNC(=O)CCNC(=O)[C@H](O)C(C)(C)COP(=O)(O)OP(=O)(O)OC[C@H]1O[C@@H](n2cnc3c(N)ncnc32)[C@H](O)[C@@H]1OP(=O)(O)O [ɣ-Linolenoyl-CoA (18:3), ɣ-linolenoyl-coenzyme A (18:3)] | > 200
